Experimental data taken from US12391698B2, “Substituted piperidines and piperazines and methods for the treatment of CNS disorders” (SUVEN LIFE SCIENCES LIMITED, priority 2022, dated 2025).
Counter-ions that a name gives are not always drawn.

Tests used:
Rats = assay: Tardive dyskinesia test (vacuous chewing movements and tongue protrusions); type: in vivo, rat; settings: 38 mg/kg, i.m. single dose, scored weekly for 4 weeks
Method: Rats weighing 200-230 g were acclimatized to the plexiglass observation cages (30×20×30 cm) equipped with mirrors for 5 min. After acclimatization, basal vacuous chewing movements (VCMs) and tongue protrusions (TPs) of the rats were quantified manually for 5 min. Rats were randomized based on the basal readings. Rats received a single dose of sesame oil (vehicle treatment) or haloperidol decanoate (38 mg/kg, i.m. positive control). Example-2, 10 mg/kg, p.o. ([…]) was administered for 4 weeks. VCMs and TPs were scored on weekly basis for 4 weeks. Tardive dyskinesia is a side effect of antipsychotic medications.

[1] = molecular target: T1, hD2S (cloned human dopamine D2S receptor) (Homo sapiens, UniProt P14416); assay: Determination of Ki at D2S receptor (radioligand binding, [3H]-Raclopride); settings: CHO-K1 recombinant cells; [3H]-Raclopride 4 nM; read-out: Ki hD2S
T1 construct: expressed in transfected cells; host or cells: CHO-K1
Method: (§1) Compounds were tested according to the following procedure.
(§2) • Receptor source: Recombinant mammalian cells (CHO-K1) • Radioligand: [^3H]-Raclopride (80.8 Ci/mmol) • Final ligand concentration: 4 nM • Non-specific determinant: 0.1 mM Haloperidol • Reference compound: Haloperidol • Positive control: Haloperidol Incubation Conditions:
(§3) Reactions were carried out in buffer with pH 7.4 containing 50 mM Tris-HCl, 120 mM NaCl, 5 mM KCl, 5 mM MgCl2, 1 mM EDTA for 2 h at r.t. The reaction was terminated by rapid vacuum filtration onto the glass fiber filters. Radioactivity trapped onto the filters was determined and compared to the control values in order to ascertain any interactions of the test compound(s) with cloned human dopamine Das receptor binding site.

[2] = molecular target: T2, cloned human 5-HT2A receptor (Homo sapiens, UniProt P28223); assay: Determination of Ki at 5-HT2A receptor (radioligand binding, [3H]-Ketanserine); settings: CHO-K1 recombinant cells; [3H]-Ketanserine 1.25 nM; read-out: Ki h5-HT2A
T2 construct: expressed in transfected cells; host or cells: CHO-K1
Method: as §1
as §2, with “[^3H]-Ketanserine (41.9” for “[^3H]-Raclopride (80.8”, “1.25” for “4”, “1-Napthyl piperazine (1-NP)” for “Haloperidol”
as §3, with “4” for “120”, “CaCl2), 0.1% Ascorbic acid for” for “NaCl, 5 mM KCl, 5 mM MgCl2,”, “1” for “1 mM EDTA for 2”, “5-HT2A” for “dopamine Das”

[3] = Rodent pharmacokinetic study; type: in vivo, Male Wistar rats; settings: rat, plasma, mean ± S.D, n = 3
Method: Male Wistar rats (260±50 g) were used as experimental animals. Animals were housed individually in polypropylene cage. Two days prior to study, male Wistar rats were anesthetized with isoflurane for surgical placement of jugular vein catheter. Rats were randomly divided for oral (3 mg/kg) and intravenous (1 mg/kg) dosing (n=3/group) and fasted overnight before oral dosing (p.o.). However, food and water were provided ad libitum to the rats allocated for intravenous dosing.
At pre-determined time points, blood samples were collected through jugular vein and replenished with an equivalent volume of normal saline. Collected blood was transferred into a labeled eppendorf tube containing 10 μL of heparin as an anticoagulant. Typically blood samples were collected at 0.08, 0.25, 0.5, 1, 2, 4, 6, 8, and 24 h post dose. Blood samples were centrifuged at 4000 rpm for 10 min. Plasma was separated and stored frozen at −80° C. until analysis. The concentrations of the test compounds were quantified in plasma by qualified LC-MS/MS method using suitable extraction technique. The test compounds were quantified in the calibration range around 1-1000 ng/mL in plasma. Study samples were analyzed using calibration samples in the batch and quality control samples spread across the batch.
Pharmacokinetic parameters Cmax, AUCt, t1/2. Clearance and Bioavailability (F) were calculated using standard non-compartmental model by using Phoenix WinNonlin 6.0.4 version software package.

[4] = molecular target: cloned human SERT receptor (Homo sapiens, UniProt P31645); assay: Determination of Ki at SERT receptor (SPA binding, [3H]-Citalopram); settings: HEK293 recombinant cells; [3H]-Citalopram 2 nM; cells printed in μM; read-out: Ki hSERT
Method: as §1
• Receptor source: Recombinant mammalian cells (HEK293) • Radioligand: [^3H]-Citalopram (80.8 Ci/mmol) • Final ligand concentration: 2 nM • Non-specific determinant: 0.1 mM Venlafaxine • Reference compound: Venlafaxine • Positive control: Venlafaxine Incubation Conditions:
Reactions were carried out in buffer with pH 7.4 containing 50 mM Tris-HCl, 150 mM NaCl, 5 mM KCl and scintillation proximity assay (SPA) beads (0.1 mg/well) for 3 h at r.t. Radioactivity proximal to SPA beads was determined by scintillation proximity assay and compared to the control values in order to ascertain any interactions of the test compound(s) with cloned human SERT receptor binding site.
Reference: Journal of Pharmacology and Experimental Therapeutics, 1987, 242 (1), 364-371.

[5] = Rodent brain penetration study; type: in vivo; settings: rat, brain/plasma, po, fed male Wistar rats, 3 mg/kg p.o., mean ± S.D, n = 3, read-out: Rat Brain Penetration (Cbrain/Cplasma) at 3 mg/kg, p.o. @ 1 h
Method: Male Wistar rats (260±40 g) were used as experimental animals. Three animals were housed in each cage. Animals were given water and food ad libitum throughout the experiment and maintained on a 12 h light/dark cycle.
Brain penetration was determined in discrete manner in rats. One day prior to dosing, male Wistar rats were acclimatized and randomly grouped according to their body weight. At each time point (0.50, 1 and 2 h), n=3 animals were used.
The test compounds were suitably preformulated and administered orally at (free base equivalent) 3 mg/kg. Blood samples were removed via cardiac puncture under isoflurane anesthesia. The animals were sacrificed to collect brain tissue. Plasma was separated and brain samples were homogenized. Plasma and brain homogenates were stored frozen at −20° C. until analysis. The concentrations of the test compounds in plasma and brain were determined using LC-MS/MS method.
The test compounds were quantified in plasma and brain homogenate by qualified LC-MS/MS method using suitable extraction technique in the calibration range of 1-500 ng/mL. Study samples were analyzed using calibration samples in the batch and quality control samples spread across the batch. Extent of brain-plasma ratio (Cbrain/Cplasma) was calculated.

[6] = molecular target: T3, cloned human 5-HT1A receptor (Homo sapiens, UniProt P08908); assay: Determination of Ki at 5-HT1A receptor (radioligand binding, [3H]-8-Hydroxy DPAT); settings: HEK293-EBNA recombinant cells; [3H]-8-Hydroxy DPAT 0.8 nM; read-out: Ki h5-HT1A
T3 construct: expressed in transfected cells; host or cells: HEK293-EBNA
T3 sequence (P08908 1-422): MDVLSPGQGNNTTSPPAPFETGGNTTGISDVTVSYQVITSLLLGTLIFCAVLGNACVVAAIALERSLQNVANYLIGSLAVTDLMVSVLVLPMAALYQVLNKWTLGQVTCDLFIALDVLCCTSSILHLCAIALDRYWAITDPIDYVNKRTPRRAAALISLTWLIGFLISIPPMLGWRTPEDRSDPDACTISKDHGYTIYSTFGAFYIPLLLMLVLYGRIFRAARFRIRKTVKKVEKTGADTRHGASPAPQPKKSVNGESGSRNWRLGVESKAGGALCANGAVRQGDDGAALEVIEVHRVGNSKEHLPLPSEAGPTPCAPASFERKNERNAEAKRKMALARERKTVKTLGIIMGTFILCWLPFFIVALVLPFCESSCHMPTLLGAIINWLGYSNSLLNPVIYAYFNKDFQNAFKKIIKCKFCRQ
Method: as §1
• Receptor source: Recombinant mammalian cells (HEK293-EBNA) • Radioligand: [^3H]-8-Hydroxy DPAT (200 Ci/mmol) • Final ligand concentration: 0.8 nM • Non-specific determinant: 0.1 mM U92016A • Reference compound: U92016A • Positive control: U92016A Incubation Conditions:
as §3, with “0.5” for “120”, “EDTA, 10” for “NaCl, 5”, “MgSO4, 0.1% Ascorbic acid” for “KCl, 5 mM MgCl2, 1 mM EDTA”, “5-HT1A” for “dopamine Das”

Male Sprague Dawley rats = assay: Amphetamine-induced hyperlocomotion; type: in vivo, rat; settings: 3 mg/kg, p.o., dosed 30 min prior to trial
Method: Male Sprague Dawley rats of 230-280 g body weight were used. Rats were weighed and randomized according to their body weights. Following day, the rats were brought to the laboratory 1 h prior to test. In the morning session, rats were habituated to open field arena for 15 min. Test compound/vehicle and amphetamine/vehicle were administered 30 min prior to the trial. After the post-dose interval, rats were placed in the open field and locomotion was recorded for a period of 15 min. Amphetamine-induced hyperlocomotion models positive symptoms of schizophrenia.

[7] = intravenous (bolus) 1 mg/kg, male Wistar rats
[8] = oral (gavage) 3 mg/kg, fasted male Wistar rats

T1 sequence (P14416 1-414 isoform P14416-2): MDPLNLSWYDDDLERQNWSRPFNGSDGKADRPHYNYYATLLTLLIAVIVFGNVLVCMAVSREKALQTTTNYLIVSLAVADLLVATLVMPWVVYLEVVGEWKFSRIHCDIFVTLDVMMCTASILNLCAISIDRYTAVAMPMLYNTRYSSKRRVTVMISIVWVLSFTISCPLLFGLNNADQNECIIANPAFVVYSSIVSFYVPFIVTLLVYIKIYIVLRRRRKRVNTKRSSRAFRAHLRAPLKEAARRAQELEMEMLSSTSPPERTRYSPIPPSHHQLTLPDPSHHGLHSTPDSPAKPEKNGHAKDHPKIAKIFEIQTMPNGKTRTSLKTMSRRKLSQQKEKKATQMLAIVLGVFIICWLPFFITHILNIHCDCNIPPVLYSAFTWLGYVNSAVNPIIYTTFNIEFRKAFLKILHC
Chain of cloned human SERT receptor (P31645 whole entry): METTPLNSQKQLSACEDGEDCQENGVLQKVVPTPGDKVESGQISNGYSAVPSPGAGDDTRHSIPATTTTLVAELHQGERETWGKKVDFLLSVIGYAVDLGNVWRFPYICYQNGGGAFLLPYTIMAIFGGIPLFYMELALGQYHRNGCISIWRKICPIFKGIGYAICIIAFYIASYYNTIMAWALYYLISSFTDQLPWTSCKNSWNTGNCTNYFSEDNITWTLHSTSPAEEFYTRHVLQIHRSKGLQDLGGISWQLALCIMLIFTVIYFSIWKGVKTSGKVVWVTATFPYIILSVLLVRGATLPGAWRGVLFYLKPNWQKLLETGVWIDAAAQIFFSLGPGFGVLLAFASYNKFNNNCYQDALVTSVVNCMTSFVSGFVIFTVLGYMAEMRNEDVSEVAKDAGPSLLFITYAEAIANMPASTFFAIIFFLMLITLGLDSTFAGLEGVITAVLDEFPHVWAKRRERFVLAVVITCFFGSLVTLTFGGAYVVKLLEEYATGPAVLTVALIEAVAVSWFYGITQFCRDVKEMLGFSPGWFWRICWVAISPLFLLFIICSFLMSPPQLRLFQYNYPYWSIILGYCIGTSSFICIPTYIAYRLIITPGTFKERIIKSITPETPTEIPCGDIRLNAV
T2 sequence (P28223 whole entry): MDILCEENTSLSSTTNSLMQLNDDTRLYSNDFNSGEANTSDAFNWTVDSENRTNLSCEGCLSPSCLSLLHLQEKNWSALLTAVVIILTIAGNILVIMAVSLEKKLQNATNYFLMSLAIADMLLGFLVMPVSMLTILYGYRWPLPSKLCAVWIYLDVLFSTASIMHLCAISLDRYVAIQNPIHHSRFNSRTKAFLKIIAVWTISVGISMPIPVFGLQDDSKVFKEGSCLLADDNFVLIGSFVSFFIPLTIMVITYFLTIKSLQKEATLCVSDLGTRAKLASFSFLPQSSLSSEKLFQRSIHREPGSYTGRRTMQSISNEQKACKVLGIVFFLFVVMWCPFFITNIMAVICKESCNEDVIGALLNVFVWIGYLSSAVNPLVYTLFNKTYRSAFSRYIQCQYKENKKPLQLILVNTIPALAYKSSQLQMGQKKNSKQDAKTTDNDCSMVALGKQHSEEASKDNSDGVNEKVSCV

Inference, tardive dyskinesia test (VCMs and TPs vs vehicle group) (Rats) | Structure (SMILES) | Ki [1] | Ki [2] | AUC(0-t) [3, 7] | clearance [3, 7] | half-life [3, 7] | bioavailability ([3]; oral 3 mg/kg vs intravenous 1 mg/kg, male Wistar rats, read-out: F (Bioavailability)) | AUC(0-t) [3, 8] | Cmax [3, 8] | half-life [3, 8] | Ki [4] | Kp at 1 h [5] | Ki [6] | Inference, amphetamine antagonism (hyperlocomotion) (Male Sprague Dawley rats)
Increased number of VCMs and TPs | CCCCCCCCCC(=O)OC1(c2ccc(Cl)cc2)CCN(CCCC(=O)c2ccc(F)cc2)CC1 [Haloperidol decanoate, reference compound] |  |  |  |  |  |  |  |  |  |  |  |  | 
 | O=C1C[C@H]2CCCN2C(=O)N1C[C@H]1CCCC[C@H]1CN1CCN(c2nsc3ccccc23)CC1 [Example 27, 2-[2-(4-Benzo[d]isothiazol-3-yl-piperazin-1-ylmethyl)-cyclohexylmethyl]-tetrahydro-pyrrolo[1,2-c]pyrimidine-1,3-dione oxalate] | 0.2 nM | 2 nM | 360 ± 10 ng·h/mL | 45 ± 1.3 mL/min/kg | 2.4 ± 0.4 h | 16 ± 8% | 173 ± 92 ng·h/mL | 186 ± 109 ng/mL | 1.8 ± 0.1 h | > 10 µM | 1.21 ± 0.13 | 4.7 nM | Active
